Test results reported in patent publication US20210355107A1, “MULTI-SUBSTITUTED PYRIDONE DERIVATIVES AND MEDICAL USE THEREOF” (Beijing Yuezhikangtai Biomedicines Co., Ltd., priority 2018, published 2021).

What was measured:
kinase c-MET = biological target: T1, kinase c-MET (Homo sapiens, UniProt P08581); assay: Mobility shift assay, inhibitory activity against kinase c-MET; type: biochemical; conditions: ATP at Km (35 μM), average of two independent experiments
T1 construct: purchased Carna 08-151
Description: (§1) In this test, mobility shift assay was used to test the inhibitory activity of compounds when ATP concentrations correspond to the Km of the kinases.
(§2) The concentration of test compound was 10-fold diluted from an initial concentration of 10 μM. The test result (IC50) was the average of two independent experiments.
(§3) For example, a compound at an initial concentration of 10 μM was adjusted to 500 μM with 100% DMSO, then serially diluted for 10 concentrations, and then subjected to 10-fold dilution with the buffer to prepare a diluted compound intermediate containing 10% DMSO, 5 μL of which was transferred to the 384-well plate.
(§4) 10 μL of the two enzyme solutions each was added to the 384-well plate and co-incubated with the compound for 10-15 min at room temperature.
(§5) 10 μL of the diluted substrate was added to the 384-well plate to initiate the reaction, which lasts for 1 h at 28° C.
(§6) 5) The conversion rate was read by Caliper Reader (Perkin Elmer) and the inhibition rate was calculated as the average of two tests.
(§7) 6) IC50 values were fitted with XL-fit software.

tyrosine kinase Tyro3 = biological target: T2, tyrosine kinase Tyro3 (Homo sapiens, UniProt Q06418); assay: HTRF assay, inhibitory activity against tyrosine kinase Tyro3; type: biochemical; conditions: ATP at Km (50 μM), two duplicate wells
T2 construct: purchased Carna 08-109
T2 sequence (Q06418 453-890 limits assumed): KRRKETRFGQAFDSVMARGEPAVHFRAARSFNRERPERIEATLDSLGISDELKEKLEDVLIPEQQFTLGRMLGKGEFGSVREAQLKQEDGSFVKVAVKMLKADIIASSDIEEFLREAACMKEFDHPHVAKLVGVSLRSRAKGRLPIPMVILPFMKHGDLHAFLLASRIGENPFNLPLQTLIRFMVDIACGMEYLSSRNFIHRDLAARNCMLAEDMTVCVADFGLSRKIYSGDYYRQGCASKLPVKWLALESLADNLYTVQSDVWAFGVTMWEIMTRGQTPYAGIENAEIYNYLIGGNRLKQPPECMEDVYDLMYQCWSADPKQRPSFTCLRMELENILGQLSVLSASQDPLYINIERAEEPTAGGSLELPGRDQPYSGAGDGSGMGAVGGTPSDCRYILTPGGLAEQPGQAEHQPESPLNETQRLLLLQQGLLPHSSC
Description: (§8) Test Example 2: Evaluation of Inhibitory Activity (IC50) of Compounds disclosed herein against Tyrosine Kinases Mer and Tyro3
(§9) In this test, HTRF method was used to test the inhibitory activity of compounds when ATP concentrations correspond to the Km of the kinases. The control substance was RXDX-106. The concentration of test compound was 3-fold diluted from an initial concentration of 10 μM, and two duplicate wells were set.
(§10) Kinase Mer (Carna, Cat. No. 08-108, Lot. No. 14CBS-0421H); Tyro3 (Carna, Cat. No. 08-109, Lot. No. 08CBS-1186H); HTRF kinase-TK kit (Cisbio, Cat. No. 62TK0PEC), the kit comprising: biotin-TK substrate lyophilized powder (Cisbio, Cat. No. 61TK0BLC, Lot. No. 07A), streptavidin-XL665 (Cisbio, Cat. No. 610SAXLG, Lot. No. 126A), TK antibody-cryptate (Cisbio, Cat. No. 610SAXLG, Lot. No. 04A), and detection buffer (including EDTA) (Cisbio, Cat. No. 62TK0PEC, Lot. No. 12A); ATP (Sigma, Cat. No. A7699-5G, CAS No. 34369-07-8, Lot. No. SLBQ6014V); DMSO (Sigma, Cat. No. D5879-1L, Lot. No. SHBH9944); HEPES (Sigma, Cat. No. V900477-500G, CAS No. 7365-45-9, Lot. No. WXBC4716V); MgCl2 (Sigma, Cat. No. 208337-1KG, Lot. No. MKBX9508V); EGTA (Sigma, Cat. No. E3889-100g, CAS 67-42-5, […], Lot. No. SLBG8546V); NP-40 (Beijing Dingguo, Cat. No. DH218, Lot. No. 36R00160); DTT (Sigma, Cat. No. D0632-25g, CAS No. 3483-12-3, Lot. No. SLBF3964V); compound plate (Labcyte, Cat. No. LP0200, Lot. No. 0006386836); assay plate (Greiner, Cat. No. 784075, Lot. No. E16123HM); control substance RXDX-106 (prepared according to the method disclosed in patent WO2013074633).
(§11) 1) Preparation of a buffer: 50 mM HEPES, 10 mM MgCl2, 1 mM EGTA, 0.01% NP-40, 2 mM DTT.
(§12) 2) Preparation of control substance and test samples: RXDX-106 and the compounds disclosed herein were each dissolved in DMSO to 10 mM and then diluted to 1 mM or an appropriate concentration with DMSO, and then serial double dilution was performed using BRAVO (Agilent). 100 nL of each was transferred from a compound plate (Labcyte-LP0200) to an assay plate (Greiner-784075) using ECHO 555 (Labcyte). The final concentration of DMSO was 1%.
(§13) 3) Mer and Tyro3 were each diluted to 0.5 nM and 1.2 nM with the detection buffer (Cisbio, Cat. No. 62TK0PEC, Lot. No. 12A). 5 μL of each was added to a 384-well plate and incubated with the compounds disclosed herein for 30 min at 22-25° C. Final concentrations of Mer and Tyro3 were 0.25 nM and 0.6 nM, respectively.
(§14) 4) Biotin-TK substrate and ATP were each diluted to a concentration twice the final concentration with 1× kinase buffer made up of HEPES, NaN3, BSA and orthovanadate. 5 μL of the mixture of substrate and ATP was added to the 384-well plate to initiate the reaction, which lasts for 1 h at 22-25° C.
(§15) 5) Streptavidin-XL665 and TK antibody-cryptate were diluted to 250 nM and 0.5 nM, respectively, with the detection buffer. […] of each of the two solutions was added to the 384-well plate to initiate the reaction, which lasts for 1 h at 22-25° C. The final concentrations of streptavidin-XL665 and TK antibody-cryptate were 125 nM and 0.25 nM, respectively.
(§16) 6) The fluorescence intensities at 665 nm and 615 nm were read with an Envision Reader (PerkinElmer) .
(§17) 7) IC50 values of the compounds were fitted with XL-fit software.

kinase Axl = biological target: T3, kinase Axl (Homo sapiens, UniProt P30530); assay: Mobility shift assay, inhibitory activity against kinase Axl; type: biochemical; conditions: ATP at Km (81 μM), average of two independent experiments
T3 construct: purchased Carna 08-107
T3 sequence (P30530 473-894 limits assumed): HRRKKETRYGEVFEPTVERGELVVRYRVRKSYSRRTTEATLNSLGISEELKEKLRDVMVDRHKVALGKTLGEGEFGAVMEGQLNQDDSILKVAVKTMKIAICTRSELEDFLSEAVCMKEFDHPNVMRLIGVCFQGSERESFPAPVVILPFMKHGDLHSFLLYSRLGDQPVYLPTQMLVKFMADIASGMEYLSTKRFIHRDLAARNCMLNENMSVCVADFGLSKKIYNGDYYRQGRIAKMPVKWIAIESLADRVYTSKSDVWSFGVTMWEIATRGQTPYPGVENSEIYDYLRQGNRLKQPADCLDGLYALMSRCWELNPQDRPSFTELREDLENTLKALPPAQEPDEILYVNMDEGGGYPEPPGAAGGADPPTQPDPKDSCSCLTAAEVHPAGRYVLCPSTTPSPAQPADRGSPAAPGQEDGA
Description: as §1, §2, §3, §4, §5, §6, §7

tyrosine kinase Mer = biological target: T4, tyrosine kinase Mer (Homo sapiens, UniProt Q12866); assay: HTRF assay, inhibitory activity against tyrosine kinase Mer; type: biochemical; conditions: ATP at Km (30 μM), two duplicate wells
T4 construct: purchased Carna 08-108
T4 sequence (Q12866 528-999 limits assumed): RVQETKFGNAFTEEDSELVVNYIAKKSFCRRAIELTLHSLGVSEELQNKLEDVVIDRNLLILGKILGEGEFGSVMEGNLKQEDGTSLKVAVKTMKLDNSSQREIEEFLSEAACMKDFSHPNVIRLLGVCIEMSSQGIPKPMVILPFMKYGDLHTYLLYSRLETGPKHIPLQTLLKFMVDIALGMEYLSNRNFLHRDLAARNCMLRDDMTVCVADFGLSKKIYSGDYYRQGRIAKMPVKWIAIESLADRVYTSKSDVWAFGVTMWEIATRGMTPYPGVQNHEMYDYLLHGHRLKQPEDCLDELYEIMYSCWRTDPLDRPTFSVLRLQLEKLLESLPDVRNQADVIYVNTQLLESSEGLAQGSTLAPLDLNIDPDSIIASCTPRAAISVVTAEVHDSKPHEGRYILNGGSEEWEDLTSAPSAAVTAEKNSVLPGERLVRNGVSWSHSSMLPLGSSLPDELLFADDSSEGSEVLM
Description: as §8, §9, §10, §11, §12, §13, §14, §15, §16, §17

EBC-1 cells = assay: EBC-1 cell proliferation, CellTiter-Glo Luminescent Cell Viability Assay; type: cell-based; conditions: Homo sapiens, 72 h incubation, read-out: IC50 (nM) against EBC-1 cells
Description: Test Example 3: Inhibitory Activity of Compounds disclosed herein against EBC-1 Cells
Test method: the inhibitory activity of the compounds against EBC-1 cell proliferation was evaluated using CellTiter-Glo® Luminescent Cell Viability Assay Kit (Promega).
Test procedures: when thawing EBC-1 cells, the cell cryopreservation tube was shaken rapidly in a water bath at 37° C. to thaw the cells in 1 min. The cell suspension after thawing was mixed with RPMI1640 culture medium containing 10% FBS and centrifuged for 5 min at 1000 rpm, and the supernatant was discarded. The cell pellet was suspended in 5 mL of complete culture medium. The suspension was placed in a cell culture flask with a bottom area of 25 cm^2, and cultured in a cell incubator at 37° C./95% humidity/5% CO2. Cell passage was performed when cell confluence reached about 80%. When the cells were passaged, the original cell suspension was directly made uniform by pipetting. 1/6 of the cell suspension was kept, added with 5 mL of new complete culture medium and then made uniform by pipetting. The cell culture flask was then placed in a cell incubator for further culturing. Cell plating was performed when the cell confluence reached about 80% again. With reference to the method for cell passage, 1/6 cell suspension was kept for further culturing when the cells were plated, and the remaining 5/6 of cell suspension was placed in a 15 mL centrifuge tube. Cell viability was detected by trypan blue exclusion using an IC1000 cell counter (Countstar) to ensure that cell viability was above 90%. Cell suspension at a density of 3.33×10^4 viable cells/mL was prepared using complete culture medium, and 90 μL of the cell suspension was added into 96-well cell culture plates, so that the cell density in the cell culture plates (day 0 plate and test compound plate) was 3000 viable cells/well. A control group that contains no cell or compound but only complete culture medium and a control group that contains no compound but cells were set. The cell plates were incubated overnight in a cell incubator. […] 10 μL of the above solution was added into a corresponding cell culture plate to ensure that the initial concentration of the compound was 10 μM, the dilution factor of adjacent concentration was 3.16, and the DMSO content in the cell culture plate was 0.1%. The cell plates were then incubated in the cell incubator for 72 h. During detection, CellTiter-Glo reagent (namely CellTiter-Glo® […] cell viability test reagent, Promega, Cat. No. G7572, Lot. No. 0000310975) was melted, and the cell plate was equilibrated at room temperature for 30 min. The cell plate was added with the CellTiter-Glo reagent at 100 μL per well, and then shaken on a QB-9001 microporous quick shaker (Kylin-Bell) for 5 min to fully lyse the cells. The cell plate was left to stand at room temperature for 20 min to stabilize luminescence signals, and the luminescence value of each well was scanned by a Spectramax M3 multi-functional microplate reader (Molecular Devices) at full wavelength.
Test samples: example compounds of the present invention and cabozantinib (positive control compound).
Data analysis: cell viability was calculated for compounds at various concentrations using the following formula:
Cell viability(%)=(Lumtest compound−Lumculture solution control)/(Lumcell control−Lumculture solution control)×100%,
where Lum refers to the luminescence value of each well of the test compound plate read by the multi-functional microplate reader.
The data were analyzed using GraphPad Prism 7.0 software, fitted with nonlinear S-curve regression to give dose-response curves, and IC50 values were calculated therefrom.

T1 sequence (P08581 956-1390 limits assumed): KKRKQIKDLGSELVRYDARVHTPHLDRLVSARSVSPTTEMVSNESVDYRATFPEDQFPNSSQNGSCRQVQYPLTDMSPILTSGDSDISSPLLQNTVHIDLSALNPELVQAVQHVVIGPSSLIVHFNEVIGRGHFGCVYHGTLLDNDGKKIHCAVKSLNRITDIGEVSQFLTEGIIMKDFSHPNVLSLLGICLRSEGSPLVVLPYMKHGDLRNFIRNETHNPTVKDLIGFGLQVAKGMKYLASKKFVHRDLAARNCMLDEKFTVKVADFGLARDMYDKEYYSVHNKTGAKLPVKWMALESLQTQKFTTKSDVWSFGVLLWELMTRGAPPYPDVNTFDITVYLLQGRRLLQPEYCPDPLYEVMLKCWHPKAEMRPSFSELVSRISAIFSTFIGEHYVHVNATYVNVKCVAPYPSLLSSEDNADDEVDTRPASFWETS

Compound | IC50 (kinase c-MET) | IC50 (tyrosine kinase Tyro3) | IC50 (kinase Axl) | IC50 (tyrosine kinase Mer) | IC50 (EBC-1 cells)
COc1ccc(-c2cnc(N)c(-c3ccc(NC(=O)c4cn(C(C)C)c(C#N)c(-c5ccc(F)cc5)c4=O)cc3F)c2)cc1OC [Example 1, N-(4-(2-amino-5-(3,4-dimethoxyphenyl)pyridin-3-yl)-3-fluoro-phenyl)-6-cyano-5-(4-fluorophenyl)-1-isopropyl-4-oxo-1,4-dihydropyridine-3-carboxamide] | 133 nM | 7.51 nM | 13 nM | 4.9 nM | 
CCn1cc(-c2cnc(N)c(-c3ccc(NC(=O)c4cc(C)c(C#N)n(-c5ccc(F)cc5)c4=O)cc3F)c2)cn1 [Example 18, N-(4-(2-amino-5-(1-ethyl-1H-pyrazol-4-yl)pyridin-3-yl)-3-fluorophenyl)-6-cyano-1-(4-fluorophenyl)-5-methyl-2-oxo-1,2-dihydropyridine-3-carboxamide] | 12 nM |  | 12 nM |  | 298 nM
COc1cc2nccc(Oc3ccc(NC(=O)c4cn(C(C)C)c(=O)n(-c5ccc(F)cc5)c4=O)cc3F)c2cc1OC [RXDX-106, reference compound] |  | 3.3 nM |  | 6.4 nM | 
N#Cc1c(C2CC2)cc(C(=O)Nc2ccc(-c3cc(-c4cnn(C5CCNCC5)c4)cnc3N)c(F)c2)c(=O)n1-c1ccc(F)cc1 [Example 12, N-(4-(2-amino-5-(1-(piperidin-4-yl)-1H-pyrazol-4-yl)pyridin-3-yl)-3-fluorophenyl)-6-cyano-5-cyclopropyl-1-(4-fluorophenyl)-2-oxo-1,2-dihydropyridine-3-carboxamide] | 23 nM |  | 2.1 nM |  | 98 nM
